# Measurements as given in ChEMBL document CHEMBL1201862, “PubChem BioAssay data set” (2004).
#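 Briefly, cells in 96-well plates were exposed to five compound concentrations for 48 h, and endpoints were estimated by linear interpolation. At the GI50, growth is halved.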 The source made the active and inactive calls. Cut-off read from the data, not from the text of the source: active = GI50 up to about 1.1 µM and inactive = higher.
# Tests used:
# Test in all cases: NCI anticancer screen, dose series, 48 h
# U-251 = system: U-251
# RXF 393 = system: RXF 393
# K562 = system: K562
# HOP-62 = system: HOP-62
# SF-268 = system: SF-268
# NCI-H226 = system: NCI-H226
# SW-620 = system: SW-620
# HOP-92 = system: HOP-92
# CAKI-1 = system: CAKI-1
# NCI-H460 = system: NCI-H460
# M14 = system: M14
# UO-31 = system: UO-31
# HT-29 = system: HT-29
# OVCAR-4 = system: OVCAR-4
# NCI-H522 = system: NCI-H522
# MDA-MB-231 = system: MDA-MB-231
# MDA-MB-435 = system: MDA-MB-435
# MCF7 = system: MCF7
# NCI/ADR-RES = system: NCI/ADR-RES
# EKVX = system: EKVX
Compound,GI50 (U-251),GI50 (RXF 393),GI50 (K562),GI50 (HOP-62),GI50 (SF-268),GI50 (NCI-H226),GI50 (SW-620),GI50 (HOP-92),GI50 (CAKI-1),GI50 (NCI-H460),GI50 (M14),GI50 (UO-31),GI50 (HT-29),GI50 (OVCAR-4),GI50 (NCI-H522),GI50 (MDA-MB-231),GI50 (MDA-MB-435),GI50 (MCF7),GI50 (NCI/ADR-RES),GI50 (EKVX)
COc1ccc(C2S/C(=C\c3cccc(OC)c3)C(=O)N2NC(=O)Cc2ccccc2)cc1 (stereo unspecified),> 100 µM (inactive),> 100 µM (inactive),> 100 µM (inactive),> 100 µM (inactive),> 100 µM (inactive),94.8 µM (inactive),> 100 µM (inactive),> 100 µM (inactive),> 100 µM (inactive),> 100 µM (inactive),> 100 µM (inactive),> 100 µM (inactive),> 100 µM (inactive),> 100 µM (inactive),> 100 µM (inactive),,,,,
Cc1nc2ccccc2n1COC(Cn1ccnc1)c1ccc(Cl)cc1Cl (stereo unspecified),86.9 µM (inactive),,42.8 µM (inactive),57.3 µM (inactive),78.3 µM (inactive),,> 100 µM (inactive),23.3 µM (inactive),17.4 µM (inactive),15.3 µM (inactive),> 100 µM (inactive),25.6 µM (inactive),62.2 µM (inactive),30.4 µM (inactive),> 100 µM (inactive),> 100 µM (inactive),50.1 µM (inactive),41.7 µM (inactive),99.8 µM (inactive),7.1 µM (inactive)
COc1cc([C@H]2c3cc4c(cc3[C@H](NCc3ccc(F)cc3)C3COC(=O)[C@H]32)OCO4)cc(OC)c1O (stereo partly specified),1.09 µM (active),8.04 µM (inactive),4.36 µM (inactive),1.23 µM (inactive),6.18 µM (inactive),2.03 µM (inactive),1.87 µM (inactive),2.57 µM (inactive),,0.352 µM (active),3.19 µM (inactive),4.13 µM (inactive),11.2 µM (inactive),37.6 µM (inactive),2.43 µM (inactive),,,,,6.19 µM (inactive)
O=CN(CCN1CCCC1)C1CCc2cc(Cl)c(Cl)cc2C1 (stereo unspecified),0.513 µM (active),10.9 µM (inactive),20.9 µM (inactive),11.3 µM (inactive),18.5 µM (inactive),,27.3 µM (inactive),33.2 µM (inactive),18.9 µM (inactive),0.196 µM (active),15.9 µM (inactive),14.1 µM (inactive),5.75 µM (inactive),18.7 µM (inactive),10.1 µM (inactive),11 µM (inactive),15 µM (inactive),,19.5 µM (inactive),27.2 µM (inactive)
O=C(/C=C(\O)C(=O)O)/C=C(\O)c1ccc(Cl)cc1,> 100 µM (inactive),> 100 µM (inactive),> 100 µM (inactive),> 100 µM (inactive),> 100 µM (inactive),> 100 µM (inactive),> 100 µM (inactive),> 100 µM (inactive),> 100 µM (inactive),> 100 µM (inactive),> 100 µM (inactive),> 100 µM (inactive),> 100 µM (inactive),> 100 µM (inactive),> 100 µM (inactive),,,,,> 100 µM (inactive)
O=P(CN1CCOCC1)(c1ccccc1)c1ccccc1,> 100 µM (inactive),> 100 µM (inactive),> 100 µM (inactive),> 100 µM (inactive),> 100 µM (inactive),,> 100 µM (inactive),> 100 µM (inactive),> 100 µM (inactive),> 100 µM (inactive),> 100 µM (inactive),> 100 µM (inactive),> 100 µM (inactive),> 100 µM (inactive),> 100 µM (inactive),,,,,> 100 µM (inactive)
CN(C)c1ccc(/C=C2\CCc3ccccc3C2=O)cc1Br,71.8 µM (inactive),75.5 µM (inactive),33.7 µM (inactive),> 100 µM (inactive),65 µM (inactive),> 100 µM (inactive),34.2 µM (inactive),62.7 µM (inactive),36.4 µM (inactive),> 100 µM (inactive),53.6 µM (inactive),> 100 µM (inactive),33.1 µM (inactive),83.9 µM (inactive),23.2 µM (inactive),,,,,99.5 µM (inactive)
COC(=O)c1cc(C)ccc1/C=C1\Cc2cccc(C)c2C1=O,36.6 µM (inactive),61.9 µM (inactive),9.02 µM (inactive),31.2 µM (inactive),98.9 µM (inactive),58.3 µM (inactive),31.6 µM (inactive),20.4 µM (inactive),49.2 µM (inactive),> 100 µM (inactive),> 100 µM (inactive),44.7 µM (inactive),12.8 µM (inactive),68.5 µM (inactive),10.5 µM (inactive),26.7 µM (inactive),,30.5 µM (inactive),,33.1 µM (inactive)
COC(=O)C(=O)C(C(=O)C=C(C)C)C(=O)C(=O)Nc1cc(C(F)(F)F)ccc1Cl (stereo unspecified),> 100 µM (inactive),> 100 µM (inactive),42.9 µM (inactive),> 100 µM (inactive),> 100 µM (inactive),> 100 µM (inactive),,> 100 µM (inactive),> 100 µM (inactive),> 100 µM (inactive),> 100 µM (inactive),> 100 µM (inactive),> 100 µM (inactive),> 100 µM (inactive),57.5 µM (inactive),,,,,> 100 µM (inactive)
CC1=Nc2ccccc2NC(c2ccoc2)C1 (stereo unspecified),> 100 µM (inactive),> 100 µM (inactive),> 100 µM (inactive),> 100 µM (inactive),> 100 µM (inactive),> 100 µM (inactive),> 100 µM (inactive),> 100 µM (inactive),> 100 µM (inactive),> 100 µM (inactive),> 100 µM (inactive),> 100 µM (inactive),> 100 µM (inactive),> 100 µM (inactive),> 100 µM (inactive),,,,,> 100 µM (inactive)
ON=C(CC(O)(C(F)(F)Cl)C(F)(F)Cl)CC(O)(C(F)(F)Cl)C(F)(F)Cl,3.46 µM (inactive),2.7 µM (inactive),> 10 µM (inactive),2.84 µM (inactive),3.55 µM (inactive),4.07 µM (inactive),> 10 µM (inactive),,5.46 µM (inactive),4.1 µM (inactive),,3.33 µM (inactive),9.14 µM (inactive),4.92 µM (inactive),3.21 µM (inactive),,4.07 µM (inactive),3.87 µM (inactive),4.69 µM (inactive),5.04 µM (inactive)
SCCCSCCSCCCSCCS,> 100 µM (inactive),,97.9 µM (inactive),> 100 µM (inactive),> 100 µM (inactive),,> 100 µM (inactive),,,> 100 µM (inactive),87.9 µM (inactive),80.9 µM (inactive),> 100 µM (inactive),> 100 µM (inactive),> 100 µM (inactive),70.6 µM (inactive),> 100 µM (inactive),> 100 µM (inactive),> 100 µM (inactive),> 100 µM (inactive)
COc1c(C)cc(O)cc1C=O,> 100 µM (inactive),> 100 µM (inactive),> 100 µM (inactive),> 100 µM (inactive),> 100 µM (inactive),> 100 µM (inactive),> 100 µM (inactive),> 100 µM (inactive),> 100 µM (inactive),> 100 µM (inactive),> 100 µM (inactive),> 100 µM (inactive),> 100 µM (inactive),> 100 µM (inactive),> 100 µM (inactive),,,,,> 100 µM (inactive)
NP1(Oc2ccc(F)cc2)=NP(N)(Oc2ccc(F)cc2)=NP(Oc2ccc(F)cc2)(Oc2ccc(F)cc2)=N1 (stereo unspecified),4.78 µM (inactive),,,9.68 µM (inactive),13.8 µM (inactive),,12.4 µM (inactive),3.78 µM (inactive),10.2 µM (inactive),3.7 µM (inactive),6.9 µM (inactive),4.06 µM (inactive),5.43 µM (inactive),,,11.4 µM (inactive),7.01 µM (inactive),2.94 µM (inactive),6.17 µM (inactive),6.82 µM (inactive)
N#C/C(C(=O)Nc1ccccc1)=C(/N)N1CCOCC1,> 100 µM (inactive),,> 100 µM (inactive),> 100 µM (inactive),,> 100 µM (inactive),> 100 µM (inactive),> 100 µM (inactive),> 100 µM (inactive),> 100 µM (inactive),> 100 µM (inactive),> 100 µM (inactive),,,,,> 100 µM (inactive),> 100 µM (inactive),> 100 µM (inactive),> 100 µM (inactive)
CCN(CC)C(=O)CNC(=O)OC(C)(C)C,> 100 µM (inactive),> 100 µM (inactive),> 100 µM (inactive),> 100 µM (inactive),> 100 µM (inactive),> 100 µM (inactive),> 100 µM (inactive),> 100 µM (inactive),> 100 µM (inactive),> 100 µM (inactive),> 100 µM (inactive),> 100 µM (inactive),> 100 µM (inactive),> 100 µM (inactive),> 100 µM (inactive),,,,,> 100 µM (inactive)
O=C1c2ccccc2C(=O)C1(Cl)C1(S(=O)(=O)O)c2ccccc2-c2ccccc21,> 100 µM (inactive),> 100 µM (inactive),> 100 µM (inactive),> 100 µM (inactive),> 100 µM (inactive),> 100 µM (inactive),> 100 µM (inactive),> 100 µM (inactive),> 100 µM (inactive),> 100 µM (inactive),> 100 µM (inactive),> 100 µM (inactive),> 100 µM (inactive),> 100 µM (inactive),> 100 µM (inactive),,,,,
